Assay: xn = mol fraction of the nth substance listed, in the solute-free solvent

CCC(C)n1ncn(-c2ccc(N3CCN(c4ccc(OCC5COC(Cn6cncn6)(c6ccc(Cl)cc6Cl)O5)cc4)CC3)cc2)c1=O (stereo not given) + ClC(Cl)Cl + CO
solubility (g/100 g solution)
Conditions	x2 = 0.02929	x2 = 0.06358	x2 = 0.1043	x2 = 0.1533	x2 = 0.2136	x2 = 0.2895	x2 = 0.3879	x2 = 0.5207	x2 = 0.7097
288.15 K	0.123	0.229	0.436	0.789	1.79	5.31	16.6	24.9	29.3
293.15 K	0.147	0.272	0.515	0.931	2.3	6.83	18.2	26.3	30.1
298.15 K	0.174	0.318	0.607	1.09	2.88	8.58	19.9	27.7	30.9
303.15 K	0.205	0.373	0.708	1.29	3.66	10.8	21.7	29.1	31.7
308.15 K	0.242	0.434	0.827	1.5	4.54	13.4	23.6	30.4	32.5

CC(N)C(=O)O (stereo not given) + O + CCO
solubility (g/100 g solution)
Conditions	x2 = 0.1	x2 = 0.2	x2 = 0.3	x2 = 0.4	x2 = 0.5	x2 = 0.6	x2 = 0.7	x2 = 0.8	x2 = 0.9
283.15 K	0.0667	0.0909	0.102	0.126	0.31	0.534	1.1	1.98	4.36
293.15 K	0.0741	0.0951	0.11	0.185	0.389	0.66	1.35	2.59	5.5
303.15 K	0.0895	0.102	0.127	0.245	0.454	0.83	1.68	3.23	6.66
313.15 K	0.0998	0.114	0.136	0.268	0.573	1.05	2.12	3.96	7.99
323.15 K	0.104	0.124	0.196	0.347	0.688	1.37	2.62	4.97	9.53

Cl.N=C(N)N + COCCO + CCCO
solubility (g/100 g solution)
Conditions	278.15 K	283.15 K	288.15 K	293.15 K	298.15 K	303.15 K	308.15 K	313.15 K	318.15 K	323.15 K
x2 = 0.08075	10.4	11.1	12.4	13.1	14.6	15.7	16.7	17.6	19.2	20.2
x2 = 0.253	17.4	18.7	20.1	20.9	21.8	23.2	24.1	24.9	25.7	26.9
x2 = 0.4413	23.9	24.8	25.9	26.6	27.7	28.3	29.1	30	30.9	31.4
x2 = 0.6479	29.4	30.1	30.7	31.8	32.2	33.2	33.8	34.3	35	35.6
x2 = 0.8768	32.5	33.2	34.3	34.9	35.8	36.6	37.1	38.3	38.9	39.5
